In PMC10529912 (European journal of medicinal chemistry, 2023):
Read-outs that look alike come from different tables or passages of the source.

What was measured:
[1] = target: SARS-CoV-2 main protease (Mpro) (Severe acute respiratory syndrome coronavirus 2, UniProt P0DTD1); assay: SARS-CoV-2 Mpro FRET enzymatic assay; format: biochemical
SARS-CoV-2 Mpro = SARS-CoV-2 Mpro (Severe acute respiratory syndrome coronavirus 2, UniProt P0DTD1); assay: Mpro enzyme kinetics, Morrison plot Ki determination; format: biochemical
[2] = system: SARS-CoV-2 (isolate USA WA1/2020); format: cell-based; conditions: read-out: EC50 (antiviral); Calu-3 cells, MOI 0.5, 48 hours

Row | Compound | IC50 [1] [µM] | also measured
1 | C#CC(=O)N(c1ccc(-c2ccccc2)cc1)C(C(=O)N[C@@H](C)c1ccccc1)c1cccnc1 (stereo partly drawn) [Jun10221R, N-([1,1’-biphenyl]-4-yl)-N-((S)-2-oxo-2-(((S)-1-phenylethyl)amino)-1-(pyridin-3-yl)ethyl)propiolamide] | 0.02 | 
2 | CCCC#CC(=O)N(c1ccc(-c2ccccc2)cc1)C(C(=O)N[C@@H](C)c1ccccc1)c1cccnc1 (stereo partly drawn) [Jun10923, N-([1,1’-biphenyl]-4-yl)-N-(2-oxo-2-(((S)-1-phenylethyl)amino)-1-(pyridin-3-yl)ethyl)hex-2-ynamide] | 2.51 | 
3 | C[C@H](NC(=O)C(c1cccnc1)N(C(=O)C#CC(C)(C)C)c1ccc(-c2ccccc2)cc1)c1ccccc1 (stereo partly drawn) [Jun10925, N-([1,1’-biphenyl]-4-yl)-4,4-dimethyl-N-(2-oxo-2-(((S)-1-phenylethyl)amino)-1-(pyridin-3-yl)ethyl)pent-2-ynamide] | > 20 | 
4 | COc1ccc(/C=C(\C#N)C(=O)N(c2ccc(-c3ccccc3)cc2)C(C(=O)N[C@@H](C)c2ccccc2)c2cccnc2)cc1 (stereo partly drawn) [Jun10963R, (E)-N-([1,1’-biphenyl]-4-yl)-2-cyano-3-(4-methoxyphenyl)-N-((S)-2-oxo-2-(((S)-1-phenylethyl)amino)-1-(pyridin-3-yl)ethyl)acrylamide] | 0.56 | Ki (SARS-CoV-2 Mpro): 0.573 µM
5 | COc1ccc(/C=C(\C#N)C(=O)N(c2ccc(-c3ccccc3)cc2)C(C(=O)N[C@@H](C)c2ccccc2)c2cccnc2)cc1 (stereo partly drawn) [Jun10963S, (E)-N-([1,1’-biphenyl]-4-yl)-2-cyano-3-(4-methoxyphenyl)-N-((R)-2-oxo-2-(((S)-1-phenylethyl)amino)-1-(pyridin-3-yl)ethyl)acrylamide] | > 20 | 
6 | N-([1,1’-biphenyl]-4-yl)-2-cyano-N-((S)-2-oxo-2-(((S)-1-phenylethyl)amino)-1-(pyridin-3-yl)ethyl)acetamide [Jun10541R] |  | EC50 [2]: 2.92 µM; Ki (SARS-CoV-2 Mpro; Morrison equation fit, 20 μM FRET substrate, no preincubation): 0.345 µM; cytotoxicity to Calu-3 cells (Calu-3 cells): not cytotoxic
